The target of assay [1] is T1, Alpha-1A adrenergic receptor (Homo sapiens, UniProt P35348).
T1 sequence (P35348 whole entry): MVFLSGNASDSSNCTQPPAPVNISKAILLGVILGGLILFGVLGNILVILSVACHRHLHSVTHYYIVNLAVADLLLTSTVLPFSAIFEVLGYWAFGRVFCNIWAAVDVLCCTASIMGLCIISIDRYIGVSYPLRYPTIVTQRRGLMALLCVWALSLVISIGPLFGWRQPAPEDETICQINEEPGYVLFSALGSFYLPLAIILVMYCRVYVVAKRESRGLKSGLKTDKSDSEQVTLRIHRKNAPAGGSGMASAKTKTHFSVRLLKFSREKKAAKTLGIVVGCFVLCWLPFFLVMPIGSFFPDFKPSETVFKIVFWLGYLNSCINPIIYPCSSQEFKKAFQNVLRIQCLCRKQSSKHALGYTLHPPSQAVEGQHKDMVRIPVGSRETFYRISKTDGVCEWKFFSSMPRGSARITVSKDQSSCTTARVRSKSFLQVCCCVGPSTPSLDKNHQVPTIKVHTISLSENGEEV
Format: functional, cell-based.

In assay [2] the target is T2, Muscarinic acetylcholine receptor M1 (Homo sapiens, UniProt P11229).
T2 sequence (P11229 whole entry): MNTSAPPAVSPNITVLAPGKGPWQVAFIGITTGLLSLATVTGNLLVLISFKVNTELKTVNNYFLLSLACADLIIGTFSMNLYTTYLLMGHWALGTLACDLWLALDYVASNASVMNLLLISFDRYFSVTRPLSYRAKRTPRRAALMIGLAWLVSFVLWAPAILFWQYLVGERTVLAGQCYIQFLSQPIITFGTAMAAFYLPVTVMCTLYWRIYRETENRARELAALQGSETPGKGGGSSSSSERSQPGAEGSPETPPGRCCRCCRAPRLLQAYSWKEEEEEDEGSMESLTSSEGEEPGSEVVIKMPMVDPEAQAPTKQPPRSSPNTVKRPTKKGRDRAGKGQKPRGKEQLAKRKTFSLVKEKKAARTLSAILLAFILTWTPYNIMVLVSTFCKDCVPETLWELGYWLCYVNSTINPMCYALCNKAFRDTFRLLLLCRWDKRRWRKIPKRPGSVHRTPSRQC
Format: functional, cell-based.

Assay [3] addresses cGMP-inhibited 3',5'-cyclic phosphodiesterase 3A (Homo sapiens, UniProt Q14432). It is filed as functional.
A further assay concerns the target Vasopressin V1a receptor (Homo sapiens, UniProt P37288).
The target of assay [4] is T3, Muscarinic acetylcholine receptor M2 (Homo sapiens, UniProt P08172).
T3 sequence (P08172 whole entry): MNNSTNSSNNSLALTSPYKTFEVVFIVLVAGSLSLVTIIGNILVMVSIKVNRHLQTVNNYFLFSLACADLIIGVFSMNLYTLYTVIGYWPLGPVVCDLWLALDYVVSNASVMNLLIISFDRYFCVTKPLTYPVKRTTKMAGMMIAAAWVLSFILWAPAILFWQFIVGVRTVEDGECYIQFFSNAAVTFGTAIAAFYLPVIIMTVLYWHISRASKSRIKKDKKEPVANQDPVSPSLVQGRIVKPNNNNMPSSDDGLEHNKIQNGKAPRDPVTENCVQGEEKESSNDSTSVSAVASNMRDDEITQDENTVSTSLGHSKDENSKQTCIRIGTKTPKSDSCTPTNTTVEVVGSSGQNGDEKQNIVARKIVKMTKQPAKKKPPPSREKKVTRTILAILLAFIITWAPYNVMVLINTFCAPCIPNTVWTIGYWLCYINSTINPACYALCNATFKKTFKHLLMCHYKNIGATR
Format: functional, cell-based.

For assay [5], the target named is Gamma-aminobutyric acid receptor subunit alpha-1 (Rattus norvegicus, UniProt P62813).
Sequence of Gamma-aminobutyric acid receptor subunit alpha-1 (P62813 whole entry): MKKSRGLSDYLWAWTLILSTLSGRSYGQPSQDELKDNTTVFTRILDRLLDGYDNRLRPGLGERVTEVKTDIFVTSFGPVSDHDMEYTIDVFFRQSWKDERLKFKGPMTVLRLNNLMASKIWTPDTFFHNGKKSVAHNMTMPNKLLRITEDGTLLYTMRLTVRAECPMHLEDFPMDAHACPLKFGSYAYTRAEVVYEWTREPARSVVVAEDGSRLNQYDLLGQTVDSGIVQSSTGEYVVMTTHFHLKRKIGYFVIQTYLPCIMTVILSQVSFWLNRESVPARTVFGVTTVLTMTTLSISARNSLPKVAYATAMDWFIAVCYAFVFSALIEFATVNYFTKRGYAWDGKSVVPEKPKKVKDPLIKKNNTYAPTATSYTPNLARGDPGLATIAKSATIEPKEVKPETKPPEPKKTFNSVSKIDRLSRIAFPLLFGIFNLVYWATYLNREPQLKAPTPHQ
For a further assay, the target named is T4, Glucocorticoid receptor (Homo sapiens, UniProt P04150).
T4 sequence (P04150 whole entry): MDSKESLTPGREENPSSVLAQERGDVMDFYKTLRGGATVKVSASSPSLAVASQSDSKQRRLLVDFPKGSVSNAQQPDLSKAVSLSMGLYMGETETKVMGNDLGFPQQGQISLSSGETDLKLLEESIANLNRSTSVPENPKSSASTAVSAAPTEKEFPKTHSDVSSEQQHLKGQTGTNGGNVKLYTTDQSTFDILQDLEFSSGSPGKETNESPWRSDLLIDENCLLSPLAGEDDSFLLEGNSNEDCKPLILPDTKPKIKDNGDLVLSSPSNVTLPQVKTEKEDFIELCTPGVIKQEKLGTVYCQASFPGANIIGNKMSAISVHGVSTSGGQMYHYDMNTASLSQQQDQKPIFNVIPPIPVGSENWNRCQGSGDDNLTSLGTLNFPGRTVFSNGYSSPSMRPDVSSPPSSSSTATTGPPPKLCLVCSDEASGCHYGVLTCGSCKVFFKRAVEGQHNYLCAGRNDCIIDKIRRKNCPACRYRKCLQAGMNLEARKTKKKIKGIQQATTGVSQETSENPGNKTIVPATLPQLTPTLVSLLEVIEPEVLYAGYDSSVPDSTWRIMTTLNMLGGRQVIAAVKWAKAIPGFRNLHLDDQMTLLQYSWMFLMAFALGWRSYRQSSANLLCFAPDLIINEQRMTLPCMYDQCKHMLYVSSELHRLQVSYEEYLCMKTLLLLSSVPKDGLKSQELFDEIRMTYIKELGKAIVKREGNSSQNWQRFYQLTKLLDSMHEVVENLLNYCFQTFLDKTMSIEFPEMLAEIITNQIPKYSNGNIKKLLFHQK

One may read the AC50 as the concentration at which the activity in the assay is half-maximal. A lower AC50 goes with activity at low concentration.

Structures are written as SMILES. Some results are limits rather than exact numbers.
Further: assay procedure not described here.

Sequence of cGMP-inhibited 3',5'-cyclic phosphodiesterase 3A (Q14432 whole entry): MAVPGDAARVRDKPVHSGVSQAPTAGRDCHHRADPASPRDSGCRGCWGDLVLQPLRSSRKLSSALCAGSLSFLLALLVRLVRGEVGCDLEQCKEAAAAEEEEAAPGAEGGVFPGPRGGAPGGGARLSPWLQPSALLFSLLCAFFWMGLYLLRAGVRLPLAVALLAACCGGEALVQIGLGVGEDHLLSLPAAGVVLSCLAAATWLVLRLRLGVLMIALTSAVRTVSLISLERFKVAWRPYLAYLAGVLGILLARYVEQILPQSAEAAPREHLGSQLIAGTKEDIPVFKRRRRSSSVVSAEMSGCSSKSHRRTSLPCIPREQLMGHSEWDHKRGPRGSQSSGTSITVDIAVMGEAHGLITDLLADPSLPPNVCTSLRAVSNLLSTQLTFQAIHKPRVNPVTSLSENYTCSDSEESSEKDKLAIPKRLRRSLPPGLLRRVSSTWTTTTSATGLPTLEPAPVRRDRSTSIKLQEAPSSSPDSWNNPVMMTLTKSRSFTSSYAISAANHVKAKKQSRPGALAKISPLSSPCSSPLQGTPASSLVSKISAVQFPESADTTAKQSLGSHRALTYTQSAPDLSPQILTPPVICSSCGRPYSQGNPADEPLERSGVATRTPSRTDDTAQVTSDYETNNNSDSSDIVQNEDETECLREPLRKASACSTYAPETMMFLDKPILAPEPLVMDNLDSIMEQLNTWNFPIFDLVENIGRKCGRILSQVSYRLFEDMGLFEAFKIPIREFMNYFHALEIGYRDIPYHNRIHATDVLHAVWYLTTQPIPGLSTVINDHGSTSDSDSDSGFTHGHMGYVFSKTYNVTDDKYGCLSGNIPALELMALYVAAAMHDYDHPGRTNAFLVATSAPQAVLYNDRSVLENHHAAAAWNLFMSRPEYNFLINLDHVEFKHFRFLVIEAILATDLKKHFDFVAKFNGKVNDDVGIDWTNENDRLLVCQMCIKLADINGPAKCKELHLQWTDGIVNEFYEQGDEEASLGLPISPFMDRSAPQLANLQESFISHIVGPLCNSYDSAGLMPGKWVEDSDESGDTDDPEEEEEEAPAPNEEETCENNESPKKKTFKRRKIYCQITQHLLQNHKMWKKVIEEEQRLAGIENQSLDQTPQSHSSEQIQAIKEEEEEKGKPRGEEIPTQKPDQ
Sequence of Vasopressin V1a receptor (P37288 whole entry): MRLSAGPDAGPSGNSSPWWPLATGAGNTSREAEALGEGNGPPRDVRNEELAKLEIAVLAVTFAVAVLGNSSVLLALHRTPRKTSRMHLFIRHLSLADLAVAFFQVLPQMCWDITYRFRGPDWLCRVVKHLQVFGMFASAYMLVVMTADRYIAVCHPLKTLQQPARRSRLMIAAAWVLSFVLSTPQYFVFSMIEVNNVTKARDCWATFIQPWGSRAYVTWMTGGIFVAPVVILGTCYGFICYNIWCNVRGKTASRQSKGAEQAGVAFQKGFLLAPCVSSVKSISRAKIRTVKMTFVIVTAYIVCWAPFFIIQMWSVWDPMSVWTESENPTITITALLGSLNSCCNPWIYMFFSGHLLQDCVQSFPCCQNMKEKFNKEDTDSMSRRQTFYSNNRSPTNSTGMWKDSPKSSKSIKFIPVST

Regarding `CO[C@@]1(NC(=O)C(C(=O)O)c2ccc(O)cc2)C(=O)N2C(C(=O)O)=C(CSc3nnnn3C)CO[C@@H]21` (some centres not stated) [MOXALACTAM], the AC50 in assay [1], in assay [2] and in assay [3] was over 30 µM in each case.
In the case of `CCCCCCCC/C=C\CCCCCCCC(=O)O` [OLEIC ACID], the AC50 in assay [1], in assay [2] and in assay [3] was over 30 µM each time.
For the molecule `CC1=C(C/C=C(\C)CCC[C@H](C)CCC[C@H](C)CCCC(C)C)C(=O)c2ccccc2C1=O` [PHYTONADIONE], the figures for the AC50 in assay [1], in assay [2] and in assay [3] were over 30 µM, over 30 µM and 3.44 µM, respectively.
As to `NC(=O)C1(N2CCCCC2)CCN(CCCC(=O)c2ccc(F)cc2)CC1` [PIPAMPERONE], the values for the AC50 in assay [1], in assay [2] and in assay [3] were 0.398 µM, over 30 µM and over 30 µM, respectively.
Take `COc1cccc2c1C(=O)c1c(O)c3c(c(O)c1C2=O)C[C@@](O)(C(=O)CO)C[C@@H]3O[C@H]1C[C@H](N)[C@H](O[C@@H]2CCCCO2)[C@H](C)O1` [PIRARUBICIN]: the AC50 is over 10 µM in assay [1], over 1 µM in assay [2] and over 30 µM in assay [3].
For `CC(C)(Oc1ccc(Cl)cc1)C(=O)NC(=O)NCN1CCOCC1` [PLAFIBRIDE], in that order: over 30 µM, over 30 µM and over 30 µM.
For `CC(C)NC[C@H](O)COc1ccc(O)cc1` [PRENALTEROL], in that order: over 30 µM, over 30 µM and over 30 µM.
For `CN1CCC(N(Cc2cccs2)c2ccccc2)CC1` [THENALIDINE], in that order: 23.5 µM, over 30 µM and over 30 µM.
As to `Cc1ccc(C(C)C)c(O)c1` [THYMOL], the concentration at half-maximal activity (AC50) in assay [1] was 25.8 µM; in assay [2], over 30 µM; in assay [3], over 30 µM.
In the case of `CN(C)CCN(Cc1ccccc1)c1ccccn1` [TRIPELENNAMINE], the AC50 in assay [1] is over 30 µM; on Vasopressin V1a receptor, over 10 µM; in assay [2], over 30 µM; in assay [4], over 10 µM; in assay [5], over 10 µM; at Glucocorticoid receptor it was over 10 µM. The molecule further came in with an AC50 in assay [3] of over 30 µM.
As to `Cc1cccc(C)c1NC(=O)c1cc(S(N)(=O)=O)c(Cl)cc1O` [XIPAMIDE], the AC50 in assay [1], in assay [2] and in assay [3] was over 30 µM throughout.

For the origin of these results see ChEMBL document CHEMBL5291721, “A preclinical secondary pharmacology resource illuminates target-adverse drug reaction associations of marketed drugs” (Nat Commun, 2023).
